Test results: US20050170052A1, “Water and feed preservative for animal uses” (priority 2004, published 2005)
Where two headings read alike, the source gives them in different places.

Assays:
[1] = type: physicochemical; settings: buffer, 1000 ppm
Method: (§1) A solution containing 1000 ppm citral in distilled water was homogenized with a high speed homogenizer. This solution was stored in a beaker covered with porous paper for a week. The concentration of citral remaining after a week was determined by a gas chromatography. A standard curve was prepared with reagent grade citral to which b-ionone was used as internal standard. At the beginning of the study and after a week the concentration of citral was determined by plotting it on the standard curve.

[2] = type: physicochemical; settings: buffer, 1000 ppm; remark: listed apart in the source
Method: as §1, with “closed glass bottle” for “beaker covered with porous paper”, “four weeks. Concentration” for “a week. The concentration”, “remaining” for “remaining after a week”, “weekly” for “after a week”

[3] = tested on: E. coli; experiment: Biocidal effect of terpenes in organic preservative-free apple juice (Example 7); type: cell-based; settings: 250 ppm in unpasteurized apple juice, E. coli added, one week room temperature
Method: To 100 ml of unpasteurized apple juice was added different concentration of terpenes varying from 0 to 250 ppm. After mixing, 0.5 ml of 1×10^6 cfu E. coli was added to each juice/terpene mixture and incubated at room temperature for a week. After incubation, 0.1 ml of each of the solutions was plated onto nutrient agar and incubated for 18 hours at 37° C. Results are expressed as cfu/ml and percent reduction as compared to control.

[4] = tested on: E. coli; settings: cited from earlier work

| SMILES | Percentage of citral remaining, Week 1 ([1]; 1 week) | Percentage of citral remaining, Day 1 ([1]; 1 day) | Percentage of citral remaining, Week 1 ([2]; 1 week) | Percentage of citral remaining, Week 2 ([2]; 2 week) | Percentage of citral remaining, Week 4 ([2]; 4 week) | Percentage of citral remaining, Day 1 ([2]; 1 day) | % reduction [3] | cfu/ml [3] | citral concentration in growth media that reduced the concentration of E. coli [4] | citral concentration with bactericidal effect ([4]; growth media) |
| --- | --- | --- | --- | --- | --- | --- | --- | --- | --- | --- |
| CC(C)=CCCC(C)=CC=O [Citral, citral] | 21.5% | 100% | 32% | 27% | 22% | 100% | 100% | 0 cfu/ml | more than 0.01% | 0.08% |
| CC(=O)/C=C/C1=C(C)CCCC1(C)C [B-ionone] |  |  |  |  |  |  | 100% | 0 cfu/ml |  |  |
